Each structure is given as a SMILES string.

PARP1 enzyme, sequence (P09874 whole entry): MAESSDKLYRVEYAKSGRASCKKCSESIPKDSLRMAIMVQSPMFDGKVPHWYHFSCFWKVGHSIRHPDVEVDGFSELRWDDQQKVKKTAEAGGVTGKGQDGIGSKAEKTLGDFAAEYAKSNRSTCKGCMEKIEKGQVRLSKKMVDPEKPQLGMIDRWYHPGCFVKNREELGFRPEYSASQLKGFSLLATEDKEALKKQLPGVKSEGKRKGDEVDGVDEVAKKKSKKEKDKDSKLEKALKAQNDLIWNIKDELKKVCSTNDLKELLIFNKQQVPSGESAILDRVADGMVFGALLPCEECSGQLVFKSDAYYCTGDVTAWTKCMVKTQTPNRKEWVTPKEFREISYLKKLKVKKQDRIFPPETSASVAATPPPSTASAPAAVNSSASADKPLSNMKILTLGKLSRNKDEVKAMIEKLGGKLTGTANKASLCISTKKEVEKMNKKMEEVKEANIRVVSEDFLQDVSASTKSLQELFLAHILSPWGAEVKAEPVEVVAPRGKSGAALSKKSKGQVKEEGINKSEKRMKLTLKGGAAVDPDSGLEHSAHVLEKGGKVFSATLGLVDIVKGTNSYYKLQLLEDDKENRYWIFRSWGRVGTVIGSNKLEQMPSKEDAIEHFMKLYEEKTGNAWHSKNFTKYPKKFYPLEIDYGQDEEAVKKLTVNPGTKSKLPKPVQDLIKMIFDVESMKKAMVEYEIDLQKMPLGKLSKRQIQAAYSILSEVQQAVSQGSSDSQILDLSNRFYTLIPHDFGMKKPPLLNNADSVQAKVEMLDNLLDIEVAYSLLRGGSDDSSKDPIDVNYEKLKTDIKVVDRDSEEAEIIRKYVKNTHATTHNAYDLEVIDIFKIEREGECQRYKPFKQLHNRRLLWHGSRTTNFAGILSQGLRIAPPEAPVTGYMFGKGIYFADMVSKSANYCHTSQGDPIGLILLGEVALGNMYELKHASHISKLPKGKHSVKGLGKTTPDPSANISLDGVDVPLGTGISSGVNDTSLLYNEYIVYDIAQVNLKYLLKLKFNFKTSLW

This test addresses PARP1 enzyme (Homo sapiens (Human), UniProt P09874). The test can be described thus: Inhibitory activity on PARP1 enzyme (chemiluminescence). The test is classed as biochemical. On the procedure:
The inhibitory activity of the compounds on PARP1 enzyme was determined by the chemiluminescence method in the experiment. The experiment was carried out in a 384-well plate. Coating histones in a 384-well plate: 5×histone solution was diluted 5 folds with PBS, added to a 384-well ELISA plate (25 μL per well), and incubated at 4° C. overnight. […] A mixture of PARP reaction biotin-labeled substrate, activated DNA, 10×PARP buffer and water was added (12.5 μL per well). Compound solutions with different concentrations were formulated using the experimental buffer (10% DMSO aqueous solution containing 1.25 mM DTT). The final detection concentration started from 100 nM, with 3-fold dilution and 8 concentrations. The compound solutions were added to the reaction wells of the 384-well plate (2.5 μL per well). 2.5 μL of 10% DMSO aqueous solution containing 1.25 mM DTT was added to the positive control well and blank well (2.5 μL per well). […] The plate was centrifuged at 1000 rpm for 1 minute, and reacted at room temperature for 60 minutes. […] Streptavidin-HRP solution diluted 50 folds with Blocking buffer 3 was added (25 μL per well), and the plate was incubated at room temperature for 30 minutes. […] The luminescence reaction solution obtained by mixing ECL substrate A and ELISA ECL substrate B (1:1) was added (50 μL per well) for reaction. The chemiluminescence values were measured immediately with a BioTek Synergy H1 or Envision instrument.
The chemiluminescence values were measured with a BioTek Synergy H1 or Envision instrument. The inhibition rate was calculated, and the concentration and inhibition rate were fitted to a nonlinear regression curve using Graphpad Prism software to obtain the IC50 value.
For `CCc1cc2ncc(CN3CCN(c4ccc5c(c4)CN(C)C5=O)CC3)cc2[nH]c1=O` [Example 6, 3-Ethyl-7-((4-(2-methyl-1-oxoisoindolin-5-yl)piperazin-1-yl)methyl)-1,5-naphthyridin-2(1H)-one], the IC50 was 2.9 nM.
`CCc1cc2ncc(CN3CCN(c4ccc5c(c4)CNC5=O)CC3)cc2[nH]c1=O` [Example 17, 3-Ethyl-7-((4-(1-oxoisoindolin-5-yl)piperazin-1-yl)methyl)-1,5-naphthyridin-2(1H)-one]: the IC50 turned out to be 4.5 nM.
The value for `CCc1cc2ncc(CN3CCN(c4cnc5[nH]ccc5c4)CC3)cc2[nH]c1=O` [Example 23, 7-((4-(1H-Pyrrolo[2,3-b]pyridin-5-yl)piperazin-1-yl)methyl)-3-ethyl-1,5-naphthyridin-2(1H)-one] was 3.3 nM; that for `CCc1cc2ncc(CN3CCN(c4ccc5nc(C)[nH]c5c4)CC3)cc2[nH]c1=O` [Example 24, 3-Ethyl-7-((4-(2-methyl-1H-benzo[d]imidazol-6-yl)piperazin-1-yl)methyl)-1,5-naphthyridin-2(1H)-one] was 1.7 nM.
The value for `CCc1cc2ncc(CN3CC=C(c4ccc(C(=O)N[C@H]5CCOC5)nc4)CC3)cc2[nH]c1=O` [Example 31, (S)-1′-((7-Ethyl-6-oxo-5,6-dihydro-1,5-naphthyridin-3-yl)methyl)-N-(tetrahydrofuran-3-yl)-1′,2′,3′,6′-tetrahydro-[3,4′-bipyridine]-6-carboxamide] was 1 nM; that for `CCc1cc2ncc(CN3CC=C(c4ccc(C(=O)N[C@@H]5CCOC5)nc4)CC3)cc2[nH]c1=O` [Example 32, (R)-1′-((7-Ethyl-6-oxo-5,6-dihydro-1,5-naphthyridin-3-yl)methyl)-N-(tetrahydrofuran-3-yl)-1′,2′,3′,6′-tetrahydro-[3,4′-bipyridine]-6-carboxamide] was 1 nM; that for `CCc1cc2ncc(CN3CC=C(c4ccc(C(=O)NC)c(F)c4)CC3)cc2[nH]c1=O` [Example 33, 4-(1-((7-Ethyl-6-oxo-5,6-dihydro-1,5-naphthyridin-3-yl)methyl)-1,2,3,6-tetrahydropyridin-4-yl)-2-fluoro-N-methylbenzamide] was 0.91 nM.
The value for `CCc1cc2ncc(CN3CC=C(c4ccc(C(=O)NC)nc4OC)CC3)cc2[nH]c1=O` [Example 34, 1′-((7-Ethyl-6-oxo-5,6-dihydro-1,5-naphthyridin-3-yl)methyl)-2-methoxy-N-methyl-1′,2′,3′,6′-tetrahydro-[3,4′-bipyridine]-6-carboxamide] was 1.6 nM.
Turning to `CCc1cc2ncc(CN3CC=C(c4ccc(C(=O)NC#N)nc4)CC3)cc2[nH]c1=O` [Example 57, N-Cyano-1′-((7-ethyl-6-oxo-5,6-dihydro-1,5-naphthyridin-3-yl)methyl)-1′,2′,3′,6′-tetrahydro-[3,4′-bipyridine]-6-carboxamide], the IC50 came to 2.8 nM.
The value for `CCc1cc2ncc(CN3CC=C(c4ccc(C(=O)NC)c(F)c4Cl)CC3)cc2[nH]c1=O` [Example 65, 3-Chloro-4-(1-((7-ethyl-6-oxo-5,6-dihydro-1,5-naphthyridin-3-yl)methyl)-1,2,3,6-tetrahydropyridin-4-yl)-2-fluoro-N-methylbenzamide] was 2.2 nM; that for `CCc1cc2ncc(CN3CC=C(c4ccc(C(=O)NC)c(F)c4C)CC3)cc2[nH]c1=O` [Example 66, 4-(1-((7-Ethyl-6-oxo-5,6-dihydro-1,5-naphthyridin-3-yl)methyl)-1,2,3,6-tetrahydropyridin-4-yl)-2-fluoro-N,3-dimethylbenzamide] was 1.7 nM; that for `CCc1cc2ncc(CN3CC=C(c4ccc(C(=O)NC)c(F)c4F)CC3)cc2[nH]c1=O` [Example 67, 4-(1-((7-Ethyl-6-oxo-5,6-dihydro-1,5-naphthyridin-3-yl)methyl)-1,2,3,6-tetrahydropyridin-4-yl)-2,3-difluoro-N-methylbenzamide] was 2.1 nM.

What is called IC50 is the point on the concentration scale where inhibition reaches its midpoint.

The values above are taken from patent US20240228490A1, “HETEROCYCLIC DERIVATIVE INHIBITOR AND PREPARATION METHOD THEREFOR AND APPLICATION THEREOF” (Shanghai Hansoh Biomedical Co., Ltd., priority 2021, published 2024).
